Test results taken from patent publication USRE47826E1, “Drug delivery device for providing local analgesia, local anesthesia or nerve blockage” (INNOCOLL PHARMACEUTICALS LIMITED, priority 2007, dated 2020).
Where a name gives a salt, the structure may show the parent alone. Read-outs that look alike come from different tables or passages of the source. Each block holds one molecule with its values, some of them ahead of it.

Key:
[1] = Clinical study: bupivacaine plasma pharmacokinetics after sponge implantation; assay type: in vivo, human
Description: Patients received three 5 cm×5 cm (×0.5 cm thick) sponges; one sponge divided between areas adjacent the surgical site (in this case, adjacent the location of the now-removed uterus), one sponge divided and placed across the incision in the wall of the body cavity (in this case, the peritoneum) and the final sponge divided and placed between the sheath and skin around the incision. Each sponge contained 50 mg of bupivacaine hydrochloride, giving a total dose of 150 mg per patient.
The patients were scheduled to receive a hysterectomy in the absence of uterine adenocarcinoma, cervical cancer, leiomyosarcoma or the suspicion of these cancers.

[2] = in vivo; cited from earlier work
[3] = system: Caesarian section patients; conditions: […] or 0.5%, 20 ml, cited from earlier work
plasma proteins = conditions: cited from earlier work
[4] = neonates; cited from earlier work
hysterectomy patients [5] = conditions: cited from earlier work; for average postoperative morphine consumption: infiltration in deep and superficial layers of the wound after abdominal hysterectomy
hysterectomy patients [6] = conditions: cited from earlier work
[7] = mean, n=11, three sponges, 150 mg

tlag ([1]; efficacy population n=12, three sponges, 150 mg bupivacaine HCl, column head Mean, marked *): 0.000 h
Cmax ([1]; female, human, 150 mg, mean, n=12, three sponges, 150 mg bupivacaine HCl, read-out: Cmax): 225 ng/mL
AUC(0-inf) ([1]; female, human, mean, n=11, three sponges, 150 mg): 6360 ng·h/mL
AUC(0-t) ([1]; female, human, mean, n=12, three sponges, 150 mg): 6530 ng·h/mL
Tmax ([1]; female, human, n=12, three sponges, 150 mg, column head Mean, marked *): 12 h
t1/2z [1, 7]: 10.092 h
λz [1, 7]: 0.07084 h⁻¹
SMILES: CCCCN1CCCCC1C(=O)Nc1c(C)cccc1C (stereo not drawn) [Bupivacaine Hydrochloride]

Cmax ([1]; female, human, 150 mg, after implantation of three bupivacaine-collagen sponges, 150 mg, read-out: highest individual Cmax): 440 ng/mL
Cmax ([1]; female, human, 150 mg, after implantation of three bupivacaine-collagen sponges, 150 mg, read-out: mean Cmax): 220 ng/mL
SMILES: CCCCN1CCCCC1C(=O)Nc1c(C)cccc1C (stereo not drawn) [bupivacaine, Bupivacaine]
known systemic toxicity level [2]: 2 to 4 µg/mL
duration of the effect on analgesic consumption ([3]; Caesarian section): 4 h
reduction in analgesic consumption ([3]; three studies on Caesarian section): 20-50%
bound to plasma proteins (plasma proteins): about 95%
Reported half-lives [4]: about 8 hours
reduction in analgesic consumption (hysterectomy patients [5]; […] solution 45 ml infiltrated subfascially and subcutaneously, Hannibal): 50%
average postoperative morphine consumption (hysterectomy patients [5]; Klein et al 2000): 54 mg
average postoperative morphine consumption (hysterectomy patients [5]; Ng et al 2002): 44 mg
analgesia compared with no treatment (hysterectomy patients [5]; subcutaneous infiltration of solution, Cobby 1997, Victory 1995): no improvement in analgesia

SMILES: CCCCN1CCCC[C@H]1C(=O)Nc1c(C)cccc1C [levobupivacaine]
incisional pain, deep pain and pain on coughing versus normal saline (hysterectomy patients [6]; […] infusion 12.5 mg/hr over 24 hours, 1-2 hours post surgery): significant reduction
Total ketobemidone (PCA narcotic) (hysterectomy patients [6]; […] infusion 12.5 mg/hr, 4-24 hour period): significantly reduced

SMILES: CCN(CC)CC(=O)Nc1c(C)cccc1C [lidocaine]
reduction in pain scores and supplementary analgesic consumption (hysterectomy patients [5]; 500 mg aerosol subcutaneously, first 24 hours, Sinclair et al 1996): approximately 50%
